Results on 15 compounds are retold here after patent publication US9732044B2, “N-(pyrid-4-yl)amides and N-(pyrimidin-4-yl)amides and their pharmaceutical and cosmetic use” (GALDERMA RESEARCH & DEVELOPMENT, priority 2011, dated 2017).

The subject of test [1] is sebaceous gland of the ear of a Syrian hamster. The test is described as follows: In vivo animal model with reduction in the size of the sebaceous glands (Syrian hamster ear). To be noted: 1 g %/mL solution, topical on ear, daily for 24 days, compared to control (absolute ethanol). An excerpt: The model of the sebaceous gland of the ear of a Syrian hamster described by Plewig and Luderschmidt in J. Inv. Derm., (1977), pp. 171-176 is a classical tool for the in vivo study of the function of the sebaceous gland. In fact, the inner faces of the ear lobes of the hamster contain a high number of sebaceous glands described as being similar to those of human sebaceous follicles in terms of certain characteristics, including their morphology and response to androgens and anti-androgens. In fact the growth and lipogenesis of the sebaceous glands on the inner face of the ear of Syrian hamsters depend on the androgens. The anti-androgenic activity of test compounds can be easily evaluated by measuring the size of the sebaceous glands. Moreover, this model has been selected to evaluate the efficacy of the antagonists of the receptor to the androgens on the sebaceous gland.
Test compounds were evaluated according to the following protocol: male hamsters aged weeks were treated daily for 24 days on the inner face of the right ear with 30 μL of a solution of the test compound to be evaluated in absolute ethanol. For each test compound, groups were treated with solutions at a range of concentrations (e.g., from 0.01 g %/mL to 3 g %/mL), as well as absolute ethanol used as a control. (A concentration of 3 g %/mL means a concentration of 0.03 g/mL.)
At the end of the study, samples were taken from the treated ears. The skin of the inner face of the ear was separated from the cartilage. Under a binocular magnifying glass, two zones of 4 mm^2 were numbered. The size of the sebaceous glands was measured on the numerical images by manually trimming the glands by means of image analysis software (TINA.20). For each image some twenty glands were measured. The average area of the sebaceous glands was calculated for each treatment group.
A Student t-test for independent groups comparing each dose with vehicle was carried out to compare the average size of the sebaceous glands as a function of the doses applied. When the evolution of the effect is represented graphically as a function of the administered dose of test compound, the curve obtained is sigmoid in shape. In the median part, this sigmoid may be likened to a straight line. The dose corresponding to 50% of the maximum effect corresponds graphically to the point located in the centre of the linear section defined as “effective dose 50”. This DE50 characterises the potency of the test compound.

The target of a further test is androgen receptor (AR) (Homo sapiens (Human), UniProt P10275). The test is described as follows: Androgen receptor transactivation test in PALM cell line (cross curves against methyl trienolone). The test is classed as cell-based. As to the method:
This AR inhibiting activity was measured in a transactivation test by the dissociation constants KdR (rest), KdA (active), and Kdapp (apparent).
A compound may be said to be an AR inhibitor if it has a dissociation constant, Kdapp, of less than or equal to 1 μM, and a KdR/KdA ratio of less than or equal to 10 in a transactivation test.
The transactivation test is carried out in the cell line PALM (PC3 androgen receptor Luciferase MMTV), which is a stable transfectant containing the plasmids PMMTV-neo-Luc (reporter gene) and pSG5puro-AR.
In this study, the affinity of each test compound for the 2 states of the receptor (KdR and KdA) is determined together with the apparent Kd (KdApp). This constant depends upon the 2 Kd's (KdR and KdA), but also depends on the initial equilibrium of the receptor between the active state and rest state (L0) and on its expression rate. It is determined by the following formula: 1/KdApp=(L0/(1+L0))×(1/KdR)+(1/(1+L0))×(1/KdA)
In order to determine these constants, “cross curves” of the test compound against a reference agonist, methyl trienolone, are carried out on a 96-well plate. The test compound is used in 10 concentrations and the reference agonist in 7 concentrations.

Where [2] appears, read: apparent dissociation constant, PALM cells (PC3 androgen receptor Luciferase MMTV), read-out: Kdapp.
Where [3] appears, read: threshold lists, PALM cells, read-out: Kdapp.
The mark [4] stands for this setting: Kdapp, threshold lists, PALM cells.

Read-outs that look alike come from different tables or passages of the source.

androgen receptor (AR), sequence (P10275 whole entry): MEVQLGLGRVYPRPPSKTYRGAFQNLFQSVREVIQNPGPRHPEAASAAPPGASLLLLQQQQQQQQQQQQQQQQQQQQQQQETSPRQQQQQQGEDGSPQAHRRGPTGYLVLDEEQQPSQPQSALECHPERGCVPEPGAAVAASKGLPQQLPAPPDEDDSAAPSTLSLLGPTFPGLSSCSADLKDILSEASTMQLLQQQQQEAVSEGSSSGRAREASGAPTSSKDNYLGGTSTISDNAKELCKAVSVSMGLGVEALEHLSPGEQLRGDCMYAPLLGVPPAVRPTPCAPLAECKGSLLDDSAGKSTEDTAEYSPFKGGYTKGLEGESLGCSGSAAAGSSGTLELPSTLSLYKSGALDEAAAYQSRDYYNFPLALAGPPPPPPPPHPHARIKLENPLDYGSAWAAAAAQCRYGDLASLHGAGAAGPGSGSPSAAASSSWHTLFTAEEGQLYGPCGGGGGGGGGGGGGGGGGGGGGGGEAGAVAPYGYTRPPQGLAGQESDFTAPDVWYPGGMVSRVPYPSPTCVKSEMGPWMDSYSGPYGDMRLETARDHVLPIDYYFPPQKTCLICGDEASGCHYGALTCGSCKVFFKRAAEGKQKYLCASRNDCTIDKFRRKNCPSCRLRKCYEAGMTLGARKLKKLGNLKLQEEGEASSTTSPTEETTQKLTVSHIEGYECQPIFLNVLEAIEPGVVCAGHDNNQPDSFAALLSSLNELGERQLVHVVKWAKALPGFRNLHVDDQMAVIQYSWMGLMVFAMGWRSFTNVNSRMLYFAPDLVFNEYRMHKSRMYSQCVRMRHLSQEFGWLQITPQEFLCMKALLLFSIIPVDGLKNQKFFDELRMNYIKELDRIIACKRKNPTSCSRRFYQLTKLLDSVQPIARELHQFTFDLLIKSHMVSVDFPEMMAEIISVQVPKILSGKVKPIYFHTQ

On to `COc1cc(NC(=O)C(C)(O)CC(C)C)cc(Br)n1` (racemic) [Compound 41, 2-Hydroxy-2,4-dimethyl-pentanoic acid (2-bromo-6-methoxy-pyridin-4-yl)-amide], for which the “Reduction of sebaceous glands (following treatment at 1 g %/mL)” value in test [1] was found to be 61%. The figures for the Kd at androgen receptor (AR) (setting [2]) and on androgen receptor (AR) (setting [3]) were 20 nM and not above 30 nM, respectively.

With `COc1cc(NC(=O)C(C)(O)CC(C)C)cc(Br)n1` (single isomer, unassigned) [Compound 71B], the “Reduction of sebaceous glands (following treatment at 1 g %/mL)” value in test [1] was found to be 56%. Moreover, at androgen receptor (AR) (setting [3]), the Kd was not above 30 nM.

As to `CCCCC(C)(O)C(=O)Nc1ccnc(Br)c1` (single isomer, unassigned) [Compound 80A, 2-Hydroxy-2-methyl-hexanoic acid (2-bromo-pyridin-4-yl)-amide], the “Reduction of sebaceous glands (following treatment at 1 g %/mL)” value in test [1] was found to be 51%. Further, the Kd at androgen receptor (AR) (setting [3]) is not above 100 nM.

Regarding `CCCC(C)(O)C(=O)Nc1ccnc(Br)c1` (centres unmarked) [Compound 1, 2-Hydroxy-2-methyl-pentanoic acid (2-bromo-pyridin-4-yl)-amide], the “Reduction of sebaceous glands (following treatment at 1 g %/mL)” value in test [1] is 53%. Moreover, the Kd is 75 nM at androgen receptor (AR) (setting [2]) and not above 100 nM on androgen receptor (AR) (setting [3]).

For `CCCCC(C)(O)C(=O)Nc1cc(Br)nc(OC)c1` (centres unmarked) [Compound 8, 2-Hydroxy-2-methyl-hexanoic acid (2-bromo-6-methoxy-pyridin-4-yl)-amide], in test [1], the “Reduction of sebaceous glands (following treatment at 1 g %/mL)” value came out at 56%. Also, the Kd on androgen receptor (AR) (setting [2]) was 30 nM; at androgen receptor (AR) (setting [3]) it was not above 30 nM.

As to `CCCC(O)(CC)C(=O)Nc1cc(Br)nc(OC)c1` (centres unmarked) [Compound 19, 2-Ethyl-2-hydroxy-pentanoic acid (2-bromo-6-methoxy-pyridin-4-yl)-amide], the “Reduction of sebaceous glands (following treatment at 1 g %/mL)” value in test [1] worked out at 61%. The Kd on androgen receptor (AR) (setting [3]) is not above 30 nM.

On to `CCCCC(O)(CCCC)C(=O)Nc1ccnc(Br)c1` [Compound 23, 2-Butyl-2-hydroxy-hexanoic acid (2-bromo-pyridin-4-yl)-amide], for which the “Reduction of sebaceous glands (following treatment at 1 g %/mL)” value in test [1] amounted to 51%. The Kd is 15 nM at androgen receptor (AR) (setting [2]) and not above 30 nM on androgen receptor (AR) (setting [3]).

For `CC(O)(CCc1ccccc1)C(=O)Nc1ccnc(Br)c1` (centres unmarked) [Compound 43, N-(2-Bromo-pyridin-4-yl)-2-hydroxy-2-methyl-4-phenyl-butyramide], the “Reduction of sebaceous glands (following treatment at 1 g %/mL)” value in test [1] is recorded as 44%. The Kd was not above 100 nM on androgen receptor (AR) (setting [4]) and 100 nM at androgen receptor (AR) (setting [2]).

For `COc1cc(NC(=O)C(O)(C(C)C)C(C)C)cc(Br)n1` [Compound 68, N-(2-Bromo-6-methoxy-pyridin-4-yl)-2-hydroxy-2-isopropyl-3-methyl-butyramide], in test [1], the “Reduction of sebaceous glands (following treatment at 1 g %/mL)” value worked out at 57%. The Kd on androgen receptor (AR) (setting [4]) was not above 30 nM.

Turning to `CCCCC(C)(O)C(=O)Nc1cc(Br)nc(OC)c1` (centres unmarked) [Compound 72A, 2-Hydroxy-2-methyl-hexanoic acid (2-bromo-6-methoxy-pyridin-4-yl)-amide], the “Reduction of sebaceous glands (following treatment at 1 g %/mL)” value in test [1] is 48%. At androgen receptor (AR) (setting [3]), the Kd was not above 30 nM.

On to `CCCCC(C)(O)C(=O)Nc1cc(Br)nc(OC)c1` (centres unmarked) [Compound 72B, 2-Hydroxy-2-methyl-hexanoic acid (2-bromo-6-methoxy-pyridin-4-yl)-amide], for which the “Reduction of sebaceous glands (following treatment at 1 g %/mL)” value in test [1] was found to be 46%. On androgen receptor (AR) (setting [3]), the Kd is not above 100 nM.

Regarding `CCC(O)(C(=O)Nc1cc(Br)nc(OC)c1)C(C)C` (centres unmarked) [Compound 74B, N-(2-Bromo-6-methoxy-pyridin-4-yl)-2-ethyl-2-hydroxy-3-methyl-butyramide], the “Reduction of sebaceous glands (following treatment at 1 g %/mL)” value in test [1] amounted to 61%. Also, the Kd on androgen receptor (AR) (setting [3]) was not above 30 nM.

In the case of `COc1cc(NC(=O)C(C)(O)C(C)C)cc(Br)n1` (centres unmarked) [Compound 76A, N-(2-Bromo-6-methoxy-pyridin-4-yl)-2-hydroxy-2,3-dimethyl-butyramide], in test [1], the “Reduction of sebaceous glands (following treatment at 1 g %/mL)” value was 58%. For the same compound, the Kd on androgen receptor (AR) (setting [3]) is not above 30 nM.

In the case of `CCCC(C)(O)C(=O)Nc1cc(Br)nc(OC)c1` (centres unmarked) [Compound 78B, 2-Hydroxy-2-methyl-pentanoic acid (2-bromo-6-methoxy-pyridin-4-yl)-amide], in test [1], the “Reduction of sebaceous glands (following treatment at 1 g %/mL)” value came to 50%. Besides, on androgen receptor (AR) (setting [3]), the Kd was not above 100 nM.

On to `CCCC(O)(C(=O)Nc1cc(Br)nc(OC)c1)C(C)C` (centres unmarked) [Compound 79A, 2-Hydroxy-2-isopropyl-pentanoic acid (2-bromo-6-methoxy-pyridin-4-yl)-amide], for which the “Reduction of sebaceous glands (following treatment at 1 g %/mL)” value in test [1] is 48%. Also, on androgen receptor (AR) (setting [3]), the Kd was not above 30 nM.
